Test results as given in patent publication US20050208101A1, “Coating composition for an implantable medical device and method for coating such a device” (priority 2002, published 2005).

Test system: Human embryonic fibroblasts
Test: Cell proliferation test with extracts of Elastollan films (Giemsa stain, optical density 620 nm)
Type: cell-based
Details: extracts obtained in Eagle's medium 37° C. 3 h; cells incubated 72 h; mitomycin C 20 μg/ml for 2 h
Experimental: Elastollan films containing 0.1 and 0.5% by weight shikonin, and Elastollan films without shikonin, were tested.
Human embryonic fibroblasts were employed in these experiments. The cells were cultivated in Eagle's medium with the addition of 10% fetal calf serum and passaged twice a week using a trypsin-EDTA solution. The cells present after the 14th passage were used for the tests.
Mitomycin C dissolved in culture medium in a concentration of 20 μg/ml was used as […] control.
Extracts from Elastollan films without shikonin, Elastollan films with 0.1% by weight and 0.5% by weight shikonin (based on polyurethane), and shikonin alone, were tested.
Extracts were obtained by incubating dishes covered by the polymers to be tested (i.e. Elastollan films without or with shikonin) with Eagle's medium at 37° C. for 3 h. Undissolved solids were removed by filtering. The control with shikonin only (in the culture medium) was cultivated under the same conditions. […]
The stain retained by the cells was eluted with a phosphate buffer/alcohol mixture (1:1) at room temperature for 15 min. The optical density of the resulting solutions was determined by a spectrophotometer with a wavelength of 620 nm.

## CO[C@@]12[C@H](COC(N)=O)C3=C(C(=O)C(C)=C(N)C3=O)N1C[C@@H]1N[C@@H]12 [mitomycin C, Mitomycin C]
  cell growth of fibroblasts after exposure to the tested extract: no cell growth was observed
